Test results taken from patent US10829520B2, “Beta-hairpin peptidomimetics” (POLYPHOR AG, priority 2015, dated 2020).
Where a SMILES comes first, the peptide text is derived from it. Bridges are numbered along the chain shown (N, C = ends). [ ]: non-standard residue; d: D form. Tle = CC(C)(C)[C@H](N)C(=O)O; Orn = NCCC[C@H](N)C(=O)O; Dab = NCC[C@H](N)C(=O)O; Sar = CNCC(=O)O

Key:
Assay type in all cases: cell-based
[1] = test system: Acinetobacter baumannii 872842; conditions: 872842
[2] = test system: Klebsiella pneumoniae SSI #3010; conditions: SSI #3010
Outline: (§1)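 Inocula standardised to a 0.5 McFarland reference and diluted to about 10^6 CFU/mL in MH-II broth are incubated with two-fold peptide series containing 0.002% polysorbate 80. No visible growth after 18-20 hours at 35° C defines the MIC, in μg/mL.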

[3] = test system: Escherichia coli ATCC 25922; conditions: ATCC 25922
Outline: as §1

Escherichia coli 926415 = conditions: 926415
[4] = test system: Pseudomonas aeruginosa ATCC 27853; conditions: ATCC 27853
Outline: as §1

[5] = test system: Acinetobacter baumannii DSM 30008; conditions: DSM 30008
Outline: as §1

[6] = test system: Klebsiella pneumoniae 968733; conditions: 968733
[7] = test system: human red blood cells (hRBC); assay: Hemolysis of human red blood cells; conditions: red cells of human, 1 h, 100 μg/mL
Outline: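 Percent lysis of washed human erythrocytes after 1 h at 37° C. with 100 μg/mL peptide, calculated from OD540 of 8-fold diluted supernatant as a fraction of the 2.5% Triton X-100 value.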

Q: With `CC(C)C[C@@H]1NC(=O)[C@@H](CC(C)C)NC(=O)[C@H](CCN)NC(=O)[C@@H](NC(=O)[C@H](CCN)NC(=O)[C@@H](NC(=O)[C@H](CCN)NC(=O)CN(C)C(=O)[C@@H]2CSSC[C@H](NC(=O)[C@@H](N)Cc3c[nH]c4ccccc34)C(=O)N[C@@H](C(C)C)C(=O)N[C@@H](C)C(=O)N[C@@H](CO)C(=O)N3CCC[C@@H]3C(=O)N3CCC[C@H]3C(=O)N[C@@H](CC(C)C)C(=O)N[C@@H](CO)C(=O)N[C@@H](Cc3ccc(O)cc3)C(=O)N2)[C@@H](C)O)CCNC(=O)[C@@H]([C@H](C)O)NC(=O)[C@H](CCN)NC(=O)[C@H](CCN)NC1=O` [Ex. 178] (H-WCVAS[dP]PLSYC[Sar][Dab]T[Dab][Dab][Dab][dL]L[Dab][Dab][dT]; disulfide 2-11; lactam 16-C) as the compound, how does the “Acinetobacter baumannii 872842 MIC” value [1] read?
A: The value was 2 mg/L.

Q: And the “Klebsiella pneumoniae SSI #3010 MIC” value [2]?
A: The value was 0.5 mg/L.

Q: And the “Escherichia coli ATCC 25922 MIC” value [3]?
A: The value was 0.5 mg/L.

Q: And the “Escherichia coli 926415 MIC” value (Escherichia coli 926415)?
A: The value was 1 mg/L.

Q: What about the “Pseudomonas aeruginosa ATCC 27853 MIC” value [4] of the same compound?
A: The value was 4 mg/L.

Q: What about the “Acinetobacter baumannii DSM 30008 MIC” value [5] of the same compound?
A: The value was 1 mg/L.

Q: What about the “Klebsiella pneumoniae 968733 MIC” value [6] of the same compound?
A: The value was 8 mg/L.

Q: And the “Hemolysis at 100 μg/mL” value [7]?
A: The value was under 1%.

Q: Which results are given for `CC(C)C[C@@H]1NC(=O)[C@@H](CC(C)C)NC(=O)[C@H](CCN)NC(=O)[C@@H](NC(=O)[C@H](CCN)NC(=O)[C@@H](NC(=O)[C@H](CCN)NC(=O)CN(C)C(=O)[C@@H]2CSSC[C@H](NC(=O)[C@@H](N)Cc3c[nH]c4ccccc34)C(=O)N[C@@H](C(C)C)C(=O)N[C@@H](C)C(=O)N[C@@H](CO)C(=O)N3CCC[C@@H]3C(=O)N3CCC[C@H]3C(=O)N[C@@H](CC(C)C)C(=O)N[C@@H](CO)C(=O)N[C@@H](Cc3ccc(O)cc3)C(=O)N2)[C@@H](C)O)CCNC(=O)[C@H](C(C)C)NC(=O)[C@H](CCN)NC(=O)[C@H](CCN)NC1=O` [Ex. 179] (H-WCVAS[dP]PLSYC[Sar][Dab]T[Dab][Dab][Dab][dL]L[Dab][Dab]V; disulfide 2-11; lactam 16-C)?
A: Acinetobacter baumannii 872842 MIC [1]: 0.0625 mg/L; Klebsiella pneumoniae SSI #3010 MIC [2]: 0.125 mg/L; Escherichia coli ATCC 25922 MIC [3]: 0.0625 mg/L; Escherichia coli 926415 MIC (Escherichia coli 926415): 0.125 mg/L; Pseudomonas aeruginosa ATCC 27853 MIC [4]: 1 mg/L; Acinetobacter baumannii DSM 30008 MIC [5]: 0.0625 mg/L; Klebsiella pneumoniae 968733 MIC [6]: 0.5 mg/L; Hemolysis at 100 μg/mL [7]: <1%

Q: Which results are given for `CNCC(=O)N[C@@H](Cc1c[nH]c2ccccc12)C(=O)N[C@H]1CSSC[C@@H](C(=O)N(C)CC(=O)N[C@H](C(=O)N[C@@H](CCN)C(=O)N[C@@H](CCN)C(=O)N[C@H]2CCNC(=O)[C@H]([C@@H](C)O)NC(=O)[C@H](CCN)NC(=O)[C@H](CCN)NC(=O)[C@H](CC(C)C)NC(=O)[C@@H](CC(C)C)NC(=O)[C@H](CCN)NC2=O)[C@@H](C)O)NC(=O)[C@H](Cc2ccc(O)cc2)NC(=O)[C@H](CO)NC(=O)[C@H](CC(C)C)NC(=O)[C@@H]2CCCN2C(=O)[C@H]2CCCN2C(=O)[C@H](CO)NC(=O)[C@H](C)NC(=O)[C@H](C(C)C)NC1=O` [Ex. 184] (H-[Sar]WCVAS[dP]PLSYC[Sar]T[Dab][Dab][Dab][Dab][dL]L[Dab][Dab]T; disulfide 3-12; lactam 17-C)?
A: Acinetobacter baumannii 872842 MIC [1]: 1 mg/L; Klebsiella pneumoniae SSI #3010 MIC [2]: 0.5 mg/L; Escherichia coli ATCC 25922 MIC [3]: 0.5 mg/L; Escherichia coli 926415 MIC (Escherichia coli 926415): 1 mg/L; Pseudomonas aeruginosa ATCC 27853 MIC [4]: 0.75 mg/L; Acinetobacter baumannii DSM 30008 MIC [5]: 0.5 mg/L; Klebsiella pneumoniae 968733 MIC [6]: 1 mg/L; Hemolysis at 100 μg/mL [7]: <1%

Q: How did the “Acinetobacter baumannii 872842 MIC” value [1] turn out when `CNCC(=O)N[C@@H](Cc1c[nH]c2ccccc12)C(=O)N[C@H]1CSSC[C@@H](C(=O)N(C)CC(=O)N[C@@H](CCN)C(=O)N[C@H](C(=O)N[C@@H](CCN)C(=O)N[C@H]2CCNC(=O)[C@H]([C@@H](C)O)NC(=O)[C@H](CCN)NC(=O)[C@H](CCN)NC(=O)[C@H](CC(C)C)NC(=O)[C@@H](CC(C)C)NC(=O)[C@H](CCN)NC2=O)[C@@H](C)O)NC(=O)[C@H](Cc2ccc(O)cc2)NC(=O)[C@H](CO)NC(=O)[C@H](CC(C)C)NC(=O)[C@@H]2CCCN2C(=O)[C@H]2CCCN2C(=O)[C@H](CCN)NC(=O)[C@H](C)NC(=O)[C@H](C(C)C)NC1=O` [Ex. 185] (H-[Sar]WCVA[Dab][dP]PLSYC[Sar][Dab]T[Dab][Dab][Dab][dL]L[Dab][Dab]T; disulfide 3-12; lactam 17-C) was run?
A: The value was 1 mg/L.

Q: What about the “Klebsiella pneumoniae SSI #3010 MIC” value [2] of the same compound?
A: The value was 1 mg/L.

Q: What about the “Escherichia coli ATCC 25922 MIC” value [3] of the same compound?
A: Its value is 0.25 mg/L.

Q: What about the “Escherichia coli 926415 MIC” value (Escherichia coli 926415) of the same compound?
A: Its value is 2 mg/L.

Q: And the “Pseudomonas aeruginosa ATCC 27853 MIC” value [4]?
A: Its value is 1 mg/L.

Q: And the “Acinetobacter baumannii DSM 30008 MIC” value [5]?
A: Its value is 0.25 mg/L.

Q: What about the “Klebsiella pneumoniae 968733 MIC” value [6] of the same compound?
A: The value was 8 mg/L.

Q: What about the “Hemolysis at 100 μg/mL” value [7] of the same compound?
A: The value was 1%.

Q: How did the “Acinetobacter baumannii 872842 MIC” value [1] turn out when `CNCC(=O)N[C@@H](CC(C)C)C(=O)N[C@H]1CSSC[C@@H](C(=O)N(C)CC(=O)N[C@@H](CCN)C(=O)N[C@H](C(=O)N[C@@H](CCN)C(=O)N[C@H]2CCNC(=O)[C@H]([C@@H](C)O)NC(=O)[C@H](CCN)NC(=O)[C@H](CCN)NC(=O)[C@H](CC(C)C)NC(=O)[C@@H](CC(C)C)NC(=O)[C@H](CCN)NC2=O)[C@@H](C)O)NC(=O)[C@H](Cc2ccc(O)cc2)NC(=O)[C@H](CO)NC(=O)[C@H](CC(C)C)NC(=O)[C@@H]2CCCN2C(=O)[C@H]2CCCN2C(=O)[C@H](Cc2ccc(O)cc2)NC(=O)[C@H](C)NC(=O)[C@H](C(C)C)NC1=O` [Ex. 186] (H-[Sar]LCVAY[dP]PLSYC[Sar][Dab]T[Dab][Dab][Dab][dL]L[Dab][Dab]T; disulfide 3-12; lactam 17-C) was run?
A: Its value is 0.0625 mg/L.

Q: What about the “Klebsiella pneumoniae SSI #3010 MIC” value [2] of the same compound?
A: Its value is 0.125 mg/L.

Q: And the “Escherichia coli ATCC 25922 MIC” value [3]?
A: Its value is 0.125 mg/L.

Q: What about the “Escherichia coli 926415 MIC” value (Escherichia coli 926415) of the same compound?
A: The value was 0.25 mg/L.

Q: And the “Pseudomonas aeruginosa ATCC 27853 MIC” value [4]?
A: Its value is 0.25 mg/L.

Q: What about the “Acinetobacter baumannii DSM 30008 MIC” value [5] of the same compound?
A: Its value is 0.1251 mg/L.

Q: And the “Klebsiella pneumoniae 968733 MIC” value [6]?
A: The value was 0.5 mg/L.

Q: What about the “Hemolysis at 100 μg/mL” value [7] of the same compound?
A: Its value is under 1%.

Q: What does the source list for `CNCC(=O)N[C@@H](Cc1c[nH]c2ccccc12)C(=O)N[C@H]1CSSC[C@@H](C(=O)N(C)CC(=O)N[C@@H](CCN)C(=O)N[C@H](C(=O)N[C@@H](CCN)C(=O)N[C@H]2CCNC(=O)[C@H]([C@@H](C)O)NC(=O)[C@H](CCNC(=O)[C@@H](N)CCCNC(=N)N)NC(=O)[C@H](CCN)NC(=O)[C@H](CC(C)C)NC(=O)[C@@H](CC(C)C)NC(=O)[C@H](CCN)NC2=O)[C@@H](C)O)NC(=O)[C@H](Cc2ccc(O)cc2)NC(=O)[C@H](CO)NC(=O)[C@H](CC(C)C)NC(=O)[C@@H]2CCCN2C(=O)[C@H]2CCCN2C(=O)[C@H](CO)NC(=O)[C@H](C)NC(=O)[C@H](C(C)C)NC1=O` [Ex. 187] (H-[Sar]WCVAS[dP]PLSYC[Sar][Dab]T[Dab][Dab][Dab][dL]L[Dab][Dab](Arg)T; disulfide 3-12; lactam 17-C)?
A: Acinetobacter baumannii 872842 MIC [1]: 1 mg/L; Klebsiella pneumoniae SSI #3010 MIC [2]: 0.125 mg/L; Escherichia coli ATCC 25922 MIC [3]: 0.125 mg/L; Escherichia coli 926415 MIC (Escherichia coli 926415): 2 mg/L; Pseudomonas aeruginosa ATCC 27853 MIC [4]: 1 mg/L; Acinetobacter baumannii DSM 30008 MIC [5]: 0.125 mg/L; Klebsiella pneumoniae 968733 MIC [6]: 1 mg/L; Hemolysis at 100 μg/mL [7]: <1%

Q: How did the “Acinetobacter baumannii 872842 MIC” value [1] turn out when `CC(C)C[C@@H]1NC(=O)[C@H](CO)NC(=O)[C@H](C(C)C)NC(=O)[C@@H]2CCCN2C(=O)[C@H]2CCCN2C(=O)[C@H](CO)NC(=O)[C@H](C)NC(=O)[C@H](C(C)(C)C)NC(=O)[C@@H](NC(=O)[C@@H](N)Cc2c[nH]c3ccccc23)CSSC[C@@H](C(=O)N[C@@H](CCCN)C(=O)N[C@@H](CCN)C(=O)N[C@H]2CCNC(=O)[C@H]([C@@H](C)O)NC(=O)[C@H](CCN)NC(=O)[C@H](CCN)NC(=O)[C@H](CC(C)C)NC(=O)[C@@H](Cc3ccccc3)NC(=O)[C@H](CCN)NC2=O)NC1=O` [Ex. 188] (H-WC[Tle]AS[dP]PVSLC[Orn][Dab][Dab][Dab][dF]L[Dab][Dab]T; disulfide 2-11; lactam 14-C) was run?
A: Its value is 1 mg/L.

Q: What about the “Klebsiella pneumoniae SSI #3010 MIC” value [2] of the same compound?
A: Its value is 0.25 mg/L.

Q: What about the “Escherichia coli ATCC 25922 MIC” value [3] of the same compound?
A: Its value is 0.25 mg/L.

Q: And the “Escherichia coli 926415 MIC” value (Escherichia coli 926415)?
A: The value was 0.25 mg/L.

Q: And the “Pseudomonas aeruginosa ATCC 27853 MIC” value [4]?
A: Its value is 1 mg/L.

Q: And the “Acinetobacter baumannii DSM 30008 MIC” value [5]?
A: The value was 0.25 mg/L.

Q: And the “Klebsiella pneumoniae 968733 MIC” value [6]?
A: The value was 4 mg/L.

Q: And the “Hemolysis at 100 μg/mL” value [7]?
A: The value was under 1%.
